Several values for one entry are separate records, joined by “and”; a condition that tells them apart may be missing. Equal entries are not always repeated. Activity calls are given as the source filed them.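 The calls were made as follows: active = compounds giving half or more protection of infected cells from virus-caused growth loss, again on retest; inactive = the rest.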 Where a SMILES comes first, the peptide text is derived from it. The star is where a group is joined. Cbz = O=C(OCc1ccccc1)*
Tested on: CEM cells HIV-1 protection, formazan growth assay
Assay: NCI AIDS Antiviral Assay
Settings: for IC50: measured here: growth of uninfected CEM cells
Outline: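 Soluble formazan readout of cell growth; CEM cells ± HIV-1; 5 drug concs. ≥50% protection → retest; ≥50% again = moderately active; reproducible 100% = confirmed active.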

| Structure (SMILES) | EC50 | IC50 | outcome |
| --- | --- | --- | --- |
| O=C(CCc1ccccc1)ON1C(=S)C(c2ccccc2)(c2ccccc2)N=C1Sc1ccccc1 | > 200 µM | 25.7 µM |  |
| O=C1OCCC12CN(Cc1ccccc1)N=N2 (centres undefined) | > 200 µM | > 200 µM |  |
| Cc1[nH]c2ccccc2c1C1Cc2ccccc2N1C(=O)/C=C/C(=O)O (centres undefined) | > 724 µM | 132 µM |  |
| CC(=O)OCC1C(OC(C)=O)C(OC(C)=O)C(OC(C)=O)P1(=O)c1ccccc1 (centres undefined) | > 589 µM | 537 µM |  |
| CSCCCSC1CCCCCCCCCCC1=O (centres undefined) | > 200 µM | > 200 µM |  |
| O=S(=O)(O)c1cc(N=Cc2cc(S(=O)(=O)O)c3cccnc3c2O)ccc1/C=C\c1ccc(N=Cc2cc(S(=O)(=O)O)c3cccnc3c2O)cc1S(=O)(=O)O | > 38.9 µM | > 38.9 µM |  |
| Cc1cc(Br)cc(C)c1NC(=O)C(=O)C1C(=O)C(CC2C(=O)c3ccccc3C2=O)C(=O)CC1(C)C (centres undefined) | > 18.2 µM | > 18.2 µM |  |
| C(=Nc1ccc(SSc2ccc(N=Cc3ccc4c(c3)OCO4)cc2)cc1)c1ccc2c(c1)OCO2 | > 200 µM | 23.4 µM |  |
| O=c1sc2ccccc2n1CCSSCCn1c(=O)sc2ccccc21 | > 200 µM | 9.12 µM |  |
| CC(C)(C)/C(CC(=O)CCC(=O)Nc1ccc(Cl)cc1)=N\NC(N)=S |  |  | inactive |
| CCCN=C(NNC(N)=O)C(C)=O | > 1350 µM | 1100 µM |  |
| Cc1cn(CC(CO)CCO)c(=O)[nH]c1=O (centres undefined) | > 1100 µM | > 1100 µM |  |
| Cc1cc(C)n(C2OC(CO)C(O)C(O)C2O)c(=S)c1C#N (centres undefined) | > 200 µM | > 200 µM |  |
| COc1ccc(/C=C2/CSC/C(=C/c3ccc(OC)c(OC)c3)C2=O)cc1OC | > 9.12 µM | 4.9 µM |  |
| COC(=O)C1Cc2ccc3c(c2C1=O)CCCC3 (centres undefined) | > 200 µM | 186 µM |  |
| CCCC1C/C=C/C=C/C=C/C=C/C(OC2OC(C)C(O)C(N)C2O)CC(O)C(C(=O)O)C(O)CC(=O)CC(O)CCCC(=O)CC(O)C(CC)C(=O)O1 (centres undefined) |  |  | inactive |
| CN(N=O)C(=O)ON1C(=O)CCC1=O | > 1230 µM | 107 µM |  |
| Clc1ccccc1C1=NN(c2ccccc2)C2c3ccccc3OCC12 (centres undefined) | > 72.4 µM | > 72.4 µM |  |
| CCOC(=O)c1cc(-c2ccccc2)c(=O)c(OC)nc1-c1ccccc1 | > 200 µM | 74.1 µM |  |
| CCC1=C(OC)c2ncccc2C(=O)C1=O |  |  | inactive |
| CN(C)CCO/N=C1/C=C2CC[C@H]3[C@@H]4CC[C@H](O)[C@@]4(C)CC[C@@H]3[C@@]2(C)CC1 | > 200 µM | 6.03 µM |  |
| Cc1ccc(-c2nc3scc(C)n3n2)cc1 | > 200 µM | 182 µM |  |

| Structure (SMILES) | EC50 | IC50 | outcome |
| --- | --- | --- | --- |
| COc1cc(N)c2nc(C(O)C(O)C(O)CO)cnc2c1 (centres undefined) | > 851 µM | 617 µM |  |
| Cc1cccc(N=Nc2c(S(=O)(=O)O)cc3cc(NC(=O)Nc4ccc5c(O)c(N=Nc6ccc7cc(S(=O)(=O)O)ccc7c6)c(S(=O)(=O)O)cc5c4)ccc3c2O)c1 | 15.8 µM | 75.9 µM |  |
| COC(=O)C(Cc1ccccc1)NC(=O)C(CCCN=C(N)N)NC(=O)OCc1ccccc1 (centres undefined) | > 200 µM | > 200 µM |  |
| O=C(c1ccc(NCN2C(=O)CCC2=O)cc1)c1ccc(NCN2C(=O)CCC2=O)cc1 | > 30.2 µM | > 30.2 µM |  |
| CC(=O)N/C(=C\c1ccc(Cc2nc3c([nH]2)C(=O)c2ccccc2C3=O)cc1)c1nc2c([nH]1)C(=O)c1ccccc1C2=O | > 12.6 µM | > 12.6 µM |  |
| Cc1ccc(N2CC(=O)N3CCCC(c4ccccc4)N3C(=O)C2)cc1 (centres undefined) |  |  | inactive |
| COc1ccc(/C=C2\CCC(C)C3C2=NN(c2ccccc2)C3c2ccc(OC)c(OC)c2)cc1OC (centres undefined) | > 200 µM | 5.01 µM |  |
| Cc1cc(S(=O)(=O)Nc2nc(N)n(-c3ccccn3)n2)c(S)cc1Cl | 115 µM | > 200 µM |  |
| COc1ccc(Br)c2c1CC(C(=O)O)CC2 (centres undefined) | > 457 µM | 234 µM |  |
| CN1CCN(CCn2c3c4ccccc4ccc3c3oc(=O)c4ccccc4c32)CC1 | > 100 µM | 3.02 µM |  |
| Cc1cc(N(CCC#N)CCC#N)ccc1/C=C(\NC(=O)/C=C/c1ccccc1)C(=O)Nc1ccc(Cl)cc1 | > 13.5 µM | > 13.5 µM |  |
| O=C1NC(=O)C(=Cc2ccc(-c3ccccc3)cc2)C(=O)N1 | > 24.5 µM | > 24.5 µM |  |
| S=C(NCCNC(=S)SSC(=S)NNc1ccccc1)SSC(=S)NNc1ccccc1 | > 200 µM | 17.4 µM |  |
| COc1ccc(/C=C\c2cc(OC)c(OC)c(OC)c2)cc1OC(=O)C(N)CCC(=O)O (centres undefined) | > 447 µM |  |  |
| Cc1ccc(SSCCCS(=O)O)cc1 |  |  | inactive |
| CN1N=C(N)c2cn(C3OC(COP(=O)(O)O)C(O)C3O)c3ncnc1c23 (centres undefined) | > 57.5 µM | 21.4 µM |  |
| CCCCCCCCCC=C(c1cc(Br)cc(C(=O)O)c1OC)c1cc(Br)cc(C(=O)O)c1OC | > 1200 µM | 75.9 µM |  |
| Cc1c(Cl)c(=O)oc2cc(OCC(O)COC(C)C)ccc12 (centres undefined) |  |  | inactive |
| Cc1c(Cc2ccccc2)n(C(C)OCCN2C(=O)c3ccccc3C2=O)c(=O)[nH]c1=O (centres undefined) | > 200 µM | > 200 µM |  |
| CC(=O)c1c(-c2ccco2)c(C#N)c(=S)n(C2OC(CO)C(O)C(O)C2O)c1-c1ccccc1 (centres undefined) | > 200 µM | 75.9 µM |  |
| CC1=CC(=O)C(C(O)(C(F)(F)F)C(F)(F)F)C(C)(C)C1 (centres undefined) | > 200 µM | > 200 µM |  |
| O=C1CCCC[C@H]1C(O)CC1CC(=O)N(c2ccccc2)C(=O)C1 (some centres undefined) | > 200 µM | > 200 µM |  |

| Structure (SMILES) | EC50 | IC50 | outcome |
| --- | --- | --- | --- |
| O=C(c1ccccc1)c1nc2ccc(Cl)cc2cc1C(Br)Br | > 3.31 µM | > 3.31 µM |  |
| O=C1CC2O[C@H](c3ccccc3)OC2CO1 (some centres undefined) | > 200 µM | 93.3 µM |  |
| COC1CC(C)C(OC)C2=CC(=O)C=C(NC(=O)/C(C)=C/C=C\C(C)C(OC(N)=O)/C(C)=C\C(C)C1OC)C2=O (centres undefined) | > 2 µM | 0.204 µM |  |
| CNc1ccc2[nH]c(=O)ccc2c1[N+](=O)[O-] | > 12 µM | > 12 µM |  |
| COC(=O)c1cc(Cl)ccc1NC(=O)C1CCCCC1 |  |  | inactive |
| CCOC(=O)CCC1(C)OCC(COC)O1 (centres undefined) | > 200 µM | > 200 µM |  |
| COc1ccc(C2c3cc4c(cc3OC(N3CCOCC3)C2C)OCO4)c(OC)c1 (centres undefined) | > 200 µM | 3.31 µM |  |
| CCOC(=O)c1ccc(-n2[nH]nc(C(N)=O)c2=O)cc1 | > 200 µM | > 200 µM |  |
| COC(=O)C1=COC(C)C2C[n+]3ccc4c([nH]c5ccccc54)c3CC12 (centres undefined) | > 200 µM | > 200 µM |  |
| ClC1OC(Cl)(Cl)C(Cl)(Cl)OC1(Cl)Cl (centres undefined) |  |  | inactive |
| CCCCCCCCCCCCCC(=O)CC(=O)c1c(O)cccc1O |  |  | inactive |
| CC1(C)CC(=O)C(/C=N/c2nc(-c3ccccc3)cs2)=C(O)C1 | > 200 µM | > 200 µM |  |
| N#CC(C#N)=c1cc/c(=c2/ccc(=C(C#N)C#N)s2)s1 | > 24.5 µM | > 24.5 µM |  |
| COC[C@@H]1[C@H]2OC(C)(C)O[C@H]2C(=O)N1C(=O)c1ccc(OC)cc1 | > 200 µM | > 200 µM |  |
| CN(C(=N)c1ccccc1)c1ccccc1 |  |  | inactive |
| Cc1ccc2cc([N+](=O)[O-])c3ccc(C)nc3c2n1.Cc1ccc2cc([N+](=O)[O-])c3ccc(C)nc3c2n1.O=C1OC(C(O)C[O-])C(O)=C1O.[Cu+] | > 12.6 µM | 1.82 µM |  |
| O=C(CNc1ccc2c(=S)c3ccccc3[nH]c2c1)Nc1ccccc1-c1ccccc1NC(=O)CNc1ccc2c(=S)c3ccccc3[nH]c2c1 | > 13.8 µM | 4.47 µM |  |
| CC1CN(c2ccc(Cl)cc2)CC(C)OC(=O)O1 (centres undefined) |  |  | inactive |
| O=C1C2C3C=C4c5ccccc5N(c5ccccc5)C4(C2C(=O)N1c1ccc([N+](=O)[O-])cc1)[C@H]1C(=O)N(c2ccc([N+](=O)[O-])cc2)C(=O)[C@@H]31 (some centres undefined) | > 11 µM | > 11 µM |  |
| C=Cc1c(-c2ccccc2)cnc2[nH]c3ccccc3c12 | > 13.8 µM | > 13.8 µM |  |
| CCOC(=O)C1=c2[nH]c(O)c(C(=O)OCC)c2=NC1=O | > 5.13 µM | > 5.13 µM |  |
| CC(C)(C)c1cc(C(C)(C)C)c(N=O)c(C(C)(C)C)c1 | > 200 µM | > 200 µM |  |

| Structure (SMILES) | EC50 | IC50 | outcome |
| --- | --- | --- | --- |
| COc1cc(C)cc2c1C(=O)C(Br)CC2 (centres undefined) |  |  | inactive |
| Nc1ccccc1OCCCOc1ccccc1N | > 200 µM | 110 µM |  |
| COC1N(C2CC(F)C(CO)O2)C(=O)NC(=O)C1(C)Br (centres undefined) | 0.00525 µM and 0.00316 µM | 5.62 µM and 6.03 µM |  |
| COc1cc([C@@H]2c3cc4c(cc3[C@@H](OC3OC5CO[C@@H](c6cccs6)OC5C(O)C3O)[C@H]3COC(=O)[C@H]23)OCO4)cc(OC)c1O (some centres undefined) | > 0.398 µM | 0.00174 µM |  |
| CC(C)=CC(=O)c1c(C(=O)O)nc2ccccc2[n+]1[O-] |  |  | inactive |
| COc1c(CC(C)=O)ccc2c1C(=O)c1ccc(C=O)c(OC(C)=O)c1C2=O |  |  | inactive |
| COc1ccc(/C=C2\Cc3ccccc3C2=O)cc1OC | > 35.5 µM | > 35.5 µM |  |
| CC1=NNC(=O)C1C1CC(c2c[nH]c3ccccc23)=NNC1=O (centres undefined) | > 200 µM | 155 µM |  |
| O=S(=O)(c1ccc(Br)cc1)S(=O)(=O)c1ccc(Br)cc1 | > 11.7 µM | > 11.7 µM |  |
| CC(C)N1C(=O)NC2C1NC(=O)N2C(C)C (centres undefined) (tested in a mixture with another compound) | > 200 µM | > 200 µM |  |
| O=C(O)c1cc(O)ccc1O | > 200 µM | > 200 µM |  |
| Cn1c(=O)c(C(=O)Nc2nc(C34CC5CC(CC(C5)C3)C4)cs2)c(O)c2ccccc21 | > 100 µM | > 100 µM |  |
| CCN(CC)c1ccc2cc(C(=O)Nc3nc(C45CC6CC(CC(C6)C4)C5)cs3)c(=O)oc2c1 | > 200 µM | > 200 µM |  |
| COc1ccc(C)cc1NC(=O)C(Br)C(Br)C(=O)O (centres undefined) | > 200 µM | 13.5 µM |  |
| Cc1ccc(S(=O)(=O)N/N=C(\c2nc3ccc([N+](=O)[O-])cc3[nH]c2=O)C(O)c2ccccc2Cl)cc1 (centres undefined) |  |  | inactive |
| O=C1CSC(=O)N1 | > 2140 µM | > 2140 µM |  |
| CCN(CC)c1cccc2c1C1(O)CCC3(CC21)OCCCCO3 (centres undefined) | > 200 µM | 97.7 µM |  |
| [O-]c1csc2n(-c3ccccc3)c3ccccc3[n+]12 | > 200 µM | > 200 µM |  |
| COC(=O)C(CC(C)C)NC(=O)C(CCCN=C(N)N)NC(=O)OCc1ccccc1 (stereo not drawn) (Cbz-Arg-Leu-OMe; configuration not given here) | > 200 µM | > 200 µM |  |

Source: PubChem BioAssay AID179 (DTP/NCI, 2004)
